Each compound was assayed against T1, Recombinant full length human OGA enzyme (Homo sapiens, UniProt O60502) (assay: OGA enzyme inhibition biochemical assay). Conditions: 1 nM OGA, 100 μM 4-MUGlcNAc (Km), pH 6.4, 90 minutes at room temperature, 10-point dose-response from 20 μM.
T1 construct: Recombinant full length human OGA enzyme was purchased from Origene; purchased Origene
T1 sequence (O60502 1-916): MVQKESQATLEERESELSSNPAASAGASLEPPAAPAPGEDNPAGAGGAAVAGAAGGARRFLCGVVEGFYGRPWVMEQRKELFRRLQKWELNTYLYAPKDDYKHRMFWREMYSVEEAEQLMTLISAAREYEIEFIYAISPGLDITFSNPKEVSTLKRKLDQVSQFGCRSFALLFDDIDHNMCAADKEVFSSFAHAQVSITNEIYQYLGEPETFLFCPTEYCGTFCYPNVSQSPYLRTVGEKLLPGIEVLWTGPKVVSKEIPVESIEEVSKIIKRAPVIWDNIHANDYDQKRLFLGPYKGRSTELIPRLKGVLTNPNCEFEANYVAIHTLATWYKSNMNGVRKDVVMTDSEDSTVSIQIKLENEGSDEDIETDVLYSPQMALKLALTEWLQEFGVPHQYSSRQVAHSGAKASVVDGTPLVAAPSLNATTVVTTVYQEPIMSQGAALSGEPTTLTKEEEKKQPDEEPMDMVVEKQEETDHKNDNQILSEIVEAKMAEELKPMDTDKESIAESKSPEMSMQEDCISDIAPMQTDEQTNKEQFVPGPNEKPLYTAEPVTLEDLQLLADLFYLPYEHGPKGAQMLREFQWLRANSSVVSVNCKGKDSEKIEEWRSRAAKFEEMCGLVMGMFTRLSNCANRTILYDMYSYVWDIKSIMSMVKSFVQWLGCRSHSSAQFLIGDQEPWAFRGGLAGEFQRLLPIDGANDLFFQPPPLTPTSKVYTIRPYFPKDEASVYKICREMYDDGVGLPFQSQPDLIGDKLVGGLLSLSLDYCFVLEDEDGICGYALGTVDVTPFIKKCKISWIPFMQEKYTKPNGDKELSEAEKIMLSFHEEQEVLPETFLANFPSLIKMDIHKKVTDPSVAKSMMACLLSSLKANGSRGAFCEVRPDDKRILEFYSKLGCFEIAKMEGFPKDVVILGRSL
Description: N-(5-(((2S,4R)-4-([1,2,4]triazolo[4,3-a]pyrazin-3-yloxy)-2-methylpyrrolidin-1-yl)methyl)-4-fluorothiazol-2-yl)acetamide: The title compound was prepared in an analogous manner as Example 172 from 3-bromo-[1,2,4]triazolo[4,3-a]pyrazine. LCMS (ESI): [M+H] 392. ^1H NMR (600 MHz, CHLOROFORM-d) δ 10.75 (br s, 1H), 9.04 (s, 1H), 9.03 (s, 1H), 7.24 (s, 1H), 4.99-5.06 (m, 1H), 4.01 (d, J=14.49 Hz, 1H), 3.64 (d, J=14.67 Hz, 1H), 3.40 (d, J=11.55 Hz, 1H), 2.75 (dd, J=5.78, 11.46 Hz, 1H), 2.61-2.72 (m, 2H), 2.32 (s, 4H), 1.84-1.92 (m, 1H), 1.30 (d, J=5.87 Hz, 4H). ^19F NMR (565 MHz, CHLOROFORM-d) 6-115.92 (br s, 1F). OGA Enzyme Inhibition Biochemical Assay
Recombinant full length human OGA enzyme was purchased from Origene. 4-MUGlCNAc substrate was purchased from Sigma. All other reagents were purchased from Sigma or Fisher. Assay buffer consists of the McIlvaine buffer system, pH 6.4 (0.2M Na2HPO4 mixed with 0.1M citric acid) and 0.01% BSA. Reactions consist of 1 nM OGA, 100 μM 4-MUGlcNAc (Km), and compound in a final volume of 10 μl. Reactions were incubated for 90 minutes at room temperature and quenched with 40 μl of 3M glycine, pH 10 and read on a Perkin Elmer Envision plate reader (Ex: 355 nm/Em: 460 nm). Compounds were tested with a 10-point dose-response starting from 20 μM with a 4-fold dilution. Data, as presented in Table 1 below, was fit using GraphPad Prism using a 4-parameter fit with variable slope.
With CC(=O)Nc1ncc(CN2C[C@H](Oc3ncnc4occc34)C[C@@H]2C)s1 [Example 73, N-(5-(((2S,4R)-4-(furo[2,3-d]pyrimidin-4-yloxy)-2-methylpyrrolidin-1-yl)methyl)thiazol-2-yl)acetamide] the IC50 was less than 1 nM.
For CC(=O)Nc1ncc(CN2C[C@H](Oc3nccc4oc(C(N)=O)cc34)C[C@@H]2C)s1 [Example 25, 4-(((3R,5S)-1-((2-acetamidothiazol-5-yl)methyl)-5-methylpyrrolidin-3-yl)oxy)furo[3,2-c]pyridine-2-carboxamide], the IC50 was 2.8 nM.
CC(=O)Nc1ncc(CN2C[C@H](Oc3ccc4cc(C(N)=O)ccc4n3)C[C@@H]2C)s1 [Example 2, 2-(((3R,5S)-1-((2-acetamidothiazol-5-yl)methyl)-5-methylpyrrolidin-3-yl)oxy)quinoline-6-carboxamide] was tested, and the IC50 was less than 1 nM.
CC(=O)Nc1nc(F)c(CN2C[C@H](Oc3nc4c(F)cccc4o3)C[C@@H]2C)s1 [Example 127, N-(4-fluoro-5-(((2S,4R)-4-((4-fluorobenzo[d]oxazol-2-yl)oxy)-2-methylpyrrolidin-1-yl)methyl)thiazol-2-yl)acetamide] was tested, and the IC50 was less than 1 nM.
With CC(=O)Nc1ncc(CN2C[C@H](Oc3nccc4ccccc34)C[C@@H]2C)s1 [Example 26, N-(5-(((2S,4R)-4-(isoquinolin-1-yloxy)-2-methylpyrrolidin-1-yl)methyl)thiazol-2-yl)acetamide] the IC50 was 4.5 nM.
With CC(=O)Nc1nc(F)c(CN2C[C@H](Oc3ccc4cn(C)nc4c3)C[C@@H]2C)s1 [Example 51, N-(4-fluoro-5-(((2S,4R)-2-methyl-4-((2-methyl-2H-indazol-6-yl)oxy)pyrrolidin-1-yl)methyl)thiazol-2-yl)acetamide] the IC50 was less than 1 nM.
In the case of CC(=O)Nc1nc(F)c(CN2C[C@H](Oc3ccc4ccnn4c3)C[C@@H]2C)s1 [Example 54, N-(4-fluoro-5-(((2S,4R)-2-methyl-4-(pyrazolo[1,5-a]pyridin-6-yloxy)pyrrolidin-1-yl)methyl)thiazol-2-yl)acetamide], the IC50 is reported as less than 1 nM.
CC(=O)Nc1ncc(CN2C[C@H](Oc3cccn4ccnc34)C[C@@H]2C)s1 [Example 156, N-(5-(((2S,4R)-4-(imidazo[1,2-a]pyridin-8-yloxy)-2-methylpyrrolidin-1-yl)methyl)thiazol-2-yl)acetamide] was tested, and the IC50 was less than 1 nM.
COc1cnc2c(O[C@@H]3C[C@H](C)N(Cc4sc(NC(C)=O)nc4F)C3)cnn2c1 [Example 121, N-(4-fluoro-5-(((2S,4R)-4-((6-methoxypyrazolo[1,5-a]pyrimidin-3-yl)oxy)-2-methylpyrrolidin-1-yl)methyl)thiazol-2-yl)acetamide] was tested, and the IC50 was less than 1 nM.
CC(=O)Nc1nc(F)c(CN2C[C@H](Oc3cncc4nccn34)C[C@@H]2C)s1 [Example 100, N-(4-fluoro-5-(((2S,4R)-4-(imidazo[1,2-a]pyrazin-5-yloxy)-2-methylpyrrolidin-1-yl)methyl)thiazol-2-yl)acetamide] was tested, and the IC50 was less than 1 nM.
With CC(=O)Nc1ncc(CN2C[C@H](Oc3ccc4ccnn4c3)C[C@@H]2C)s1 [Example 155, N-(5-(((2S,4R)-2-methyl-4-(pyrazolo[1,5-a]pyridin-6-yloxy)pyrrolidin-1-yl)methyl)thiazol-2-yl)acetamide] the IC50 was less than 1 nM.
CC(=O)Nc1ncc(CN2C[C@H](Oc3cc4ccccc4nc3C#N)C[C@@H]2C)s1 [Example 31, N-(5-(((2S,4R)-4-((2-cyanoquinolin-3-yl)oxy)-2-methylpyrrolidin-1-yl)methyl)thiazol-2-yl)acetamide] was tested, and the IC50 was 9.7 nM.
In the case of CC(=O)Nc1ncc(CN2C[C@H](Oc3nccc4ccc(C)cc34)C[C@@H]2C)s1 [Example 30, N-(5-(((2S,4R)-2-methyl-4-((7-methylisoquinolin-1-yl)oxy)pyrrolidin-1-yl)methyl)thiazol-2-yl)acetamide], the IC50 is reported as 7.9 nM.
Compound CC(=O)Nc1ncc(CN2C[C@H](Oc3ncc4c(C)csc4n3)C[C@@H]2C)s1 [Example 3, N-(5-(((2S,4R)-2-methyl-4-((5-methylthieno[2,3-d]pyrimidin-2-yl)oxy)pyrrolidin-1-yl)methyl)thiazol-2-yl)acetamide] has an IC50 of less than 1 nM.
CC(=O)Nc1nc(F)c(CN2C[C@H](Oc3ccc4nnn(C)c4n3)C[C@@H]2C)s1 [Example 150, N-(4-fluoro-5-(((2S,4R)-2-methyl-4-((3-methyl-3H-[1,2,3]triazolo[4,5-b]pyridin-5-yl)oxy)pyrrolidin-1-yl)methyl)thiazol-2-yl)acetamide] was tested, and the IC50 was less than 1 nM.
In the case of CC(=O)Nc1nc(F)c(CN2C[C@H](Oc3ncc4ncn(C)c4n3)C[C@@H]2C)s1 [Example 113, N-(4-fluoro-5-(((2S,4R)-2-methyl-4-((9-methyl-9H-purin-2-yl)oxy)pyrrolidin-1-yl)methyl)thiazol-2-yl)acetamide], the IC50 is reported as less than 1 nM.
Compound CC(=O)Nc1nc(F)c(CN2C[C@H](Oc3nccn4ccnc34)C[C@@H]2C)s1 [Example 96, N-(4-fluoro-5-(((2S,4R)-4-(imidazo[1,2-a]pyrazin-8-yloxy)-2-methylpyrrolidin-1-yl)methyl)thiazol-2-yl)acetamide] has an IC50 of less than 1 nM.
CC(=O)Nc1nc(F)c(CN2C[C@H](Oc3cccn4ccnc34)C[C@@H]2C)s1 [Example 157, N-(4-fluoro-5-(((2S,4R)-4-(imidazo[1,2-a]pyridin-8-yloxy)-2-methylpyrrolidin-1-yl)methyl)thiazol-2-yl)acetamide] showed an IC50 of less than 1 nM.
Compound CC(=O)Nc1ncc(CN2C[C@H](Oc3ccc4ncoc4c3)C[C@@H]2C)s1 [Example 45, N-(5-(((2S,4R)-4-(benzo[d]oxazol-6-yloxy)-2-methylpyrrolidin-1-yl)methyl)thiazol-2-yl)acetamide] has an IC50 of less than 1 nM.
Compound CC(=O)Nc1nc(F)c(CN2C[C@H](Oc3ccnc4nn(C)cc34)C[C@@H]2C)s1 [Example 140, N-(4-fluoro-5-(((2S,4R)-2-methyl-4-((2-methyl-2H-pyrazolo[3,4-b]pyridin-4-yl)oxy)pyrrolidin-1-yl)methyl)thiazol-2-yl)acetamide] has an IC50 of less than 1 nM.
CC(=O)Nc1nc(F)c(CN2C[C@H](Oc3ccnc4cn(C)nc34)C[C@@H]2C)s1 [Example 134, N-(4-fluoro-5-(((2S,4R)-2-methyl-4-((2-methyl-2H-pyrazolo[4,3-b]pyridin-7-yl)oxy)pyrrolidin-1-yl)methyl)thiazol-2-yl)acetamide] showed an IC50 of less than 1 nM.
For CC(=O)Nc1nc(F)c(CN2C[C@H](Oc3ncnc4cccnc34)C[C@@H]2C)s1 [Example 116, N-(4-fluoro-5-(((2S,4R)-2-methyl-4-(pyrido[3,2-d]pyrimidin-4-yloxy)pyrrolidin-1-yl)methyl)thiazol-2-yl)acetamide], the IC50 was 2.6 nM.
Compound CC(=O)Nc1nc(F)c(CN2C[C@H](Oc3nccc4nccn34)C[C@@H]2C)s1 [Example 98, N-(4-fluoro-5-(((2S,4R)-4-(imidazo[1,2-c]pyrimidin-5-yloxy)-2-methylpyrrolidin-1-yl)methyl)thiazol-2-yl)acetamide] has an IC50 of less than 1 nM.
Compound CC(=O)Nc1ncc(CN2C[C@H](Oc3cc(C(N)=O)nc4ccccc34)C[C@@H]2C)s1 [Example 21, 4-(((3R,5S)-1-((2-acetamidothiazol-5-yl)methyl)-5-methylpyrrolidin-3-yl)oxy)quinoline-2-carboxamide] has an IC50 of 1.9 nM.
CC(=O)Nc1ncc(CN2C[C@H](Oc3cnc4nc(C)oc4c3)C[C@@H]2C)s1 [Example 168, N-(5-(((2S,4R)-2-Methyl-4-((2-methyloxazolo[4,5-b]pyridin-6-yl)oxy)pyrrolidin-1-yl)methyl)thiazol-2-yl)acetamide] showed an IC50 of less than 1 nM.
